# Measured values from the supplement of paper PMC10307832.
# Experiments:
# Test in all cases: relative viability (nuclei count vs DMSO), 5 days (fraction); higher = more cells survive
# Crenolanib + Tozasertib = compound: CC1(COc2ccc3c(c2)ncn3-c2ccc3cccc(N4CCC(N)CC4)c3n2)COC1 [Crenolanib] + Cc1cc(Nc2cc(N3CCN(C)CC3)nc(Sc3ccc(NC(=O)C4CC4)cc3)n2)n[nH]1 [Tozasertib] (partner 0.1 µM)
# Method in brief: (§1)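 Relative viability equals treated-well nuclei counts divided by vehicle-well nuclei counts. Counts came from 4× images of lung cancer cell lines grown in 1536-well plates for 5 days after pin-tool dosing on the day after seeding. Dosing used one drug alone or a fixed anchor-drug dose plus five library-drug doses (not always all listed) in √10 steps, and values are medians of duplicate plates.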
# Tivantinib + Palbociclib = compound: O=C1NC(=O)[C@@H](c2cn3c4c(cccc24)CCC3)[C@@H]1c1c[nH]c2ccccc12 [Tivantinib] + CC(=O)c1c(C)c2cnc(Nc3ccc(N4CCNCC4)cn3)nc2n(C2CCCC2)c1=O [Palbociclib] (partner 0.5 µM)
# Method in brief: as §1
# Tivantinib + Navitoclax = compound: O=C1NC(=O)[C@@H](c2cn3c4c(cccc24)CCC3)[C@@H]1c1c[nH]c2ccccc12 [Tivantinib] + CC1(C)CCC(c2ccc(Cl)cc2)=C(CN2CCN(c3ccc(C(=O)NS(=O)(=O)c4ccc(N[C@H](CCN5CCOCC5)CSc5ccccc5)c(S(=O)(=O)C(F)(F)F)c4)cc3)CC2)C1 [Navitoclax] (partner 0.5 µM)
# Method in brief: as §1
# Tivantinib + Linsitinib = compound: O=C1NC(=O)[C@@H](c2cn3c4c(cccc24)CCC3)[C@@H]1c1c[nH]c2ccccc12 [Tivantinib] + C[C@]1(O)C[C@@H](c2nc(-c3ccc4ccc(-c5ccccc5)nc4c3)c3c(N)nccn32)C1 [Linsitinib] (partner 1 µM)
# Method in brief: as §1
Cell Line,relative viability (Crenolanib + Tozasertib; first compound 0.01 µM),relative viability (Crenolanib + Tozasertib; first compound 0.03162 µM),relative viability (Crenolanib + Tozasertib; first compound 0.1 µM),relative viability (Crenolanib + Tozasertib; first compound 0.3162 µM),relative viability (Crenolanib + Tozasertib; first compound 1 µM),relative viability (Tivantinib + Palbociclib; first compound 0.01 µM),relative viability (Tivantinib + Palbociclib; first compound 0.03162 µM),relative viability (Tivantinib + Palbociclib; first compound 0.1 µM),relative viability (Tivantinib + Palbociclib; first compound 0.3162 µM),relative viability (Tivantinib + Navitoclax; first compound 0.01 µM),relative viability (Tivantinib + Navitoclax; first compound 0.03162 µM),relative viability (Tivantinib + Navitoclax; first compound 0.1 µM),relative viability (Tivantinib + Navitoclax; first compound 0.3162 µM),relative viability (Tivantinib + Linsitinib; first compound 0.01 µM),relative viability (Tivantinib + Linsitinib; first compound 0.03162 µM),relative viability (Tivantinib + Linsitinib; first compound 0.1 µM),relative viability (Tivantinib + Linsitinib; first compound 0.3162 µM)
COR-L 105,0.379,0.426,0.365,0.38,0.358,0.441,0.385,0.436,0.375,0.856,0.867,0.748,0.626,0.824,0.695,0.985,0.578
SK-LU-1,0.395,0.369,0.342,0.349,0.34,0.42,0.394,0.423,0.34,0.864,0.783,0.941,0.733,1.07,1.17,0.982,1.14
PC-3 [JPC-3],0.889,0.856,0.81,0.902,0.87,0.482,0.6,0.508,0.491,0.775,0.829,0.801,0.574,0.929,1.04,1.01,0.708
NCI-H2087,0.219,0.277,0.239,0.262,0.254,0.209,0.233,0.276,0.228,1.14,0.981,0.972,1.03,0.962,0.795,0.951,0.944
NCI-H1755,0.666,0.594,0.527,0.501,0.549,0.437,0.44,0.432,0.459,1.02,0.954,0.934,1.03,0.975,0.97,0.916,1.01
NCI-H2228,0.291,0.279,0.236,0.223,0.256,0.895,0.794,0.652,0.602,1.15,0.71,0.837,1.01,0.639,0.538,0.519,0.627
EMC-BAC-2,0.312,0.251,0.322,0.239,0.309,0.518,0.512,0.503,0.527,1.14,1.12,1.18,1.05,0.842,0.808,0.768,0.666
NCI-H2009,0.748,0.713,0.724,0.722,0.52,0.267,0.186,0.126,0.207,1.08,1.22,1.2,1.16,1.16,1.19,1.15,1.17
NCI-H1915,0.453,0.415,0.436,0.424,0.391,0.527,0.446,0.544,0.58,0.789,0.796,0.771,0.798,1.1,1.14,1.12,1.08
SW 1573,0.175,0.198,0.137,0.212,0.174,0.464,0.384,0.32,0.343,1.02,0.917,1.06,1.14,0.762,0.853,0.77,0.789
NCI-H1355,0.586,0.596,0.508,0.354,0.534,0.395,0.374,0.385,0.384,0.879,0.966,0.949,0.808,0.726,0.801,0.725,0.779
NCI-H1651,0.649,0.716,0.592,0.852,0.61,0.518,0.461,0.495,0.424,1.02,0.928,1.03,0.938,0.937,1.01,1.04,0.814
NCI-H2023,0.471,0.368,0.333,0.371,0.25,0.447,0.376,0.334,0.327,1.01,1,0.937,1,0.657,0.737,0.575,0.461
LU99A,0.288,0.261,0.277,0.249,0.263,0.393,0.427,0.392,0.366,0.758,0.789,0.767,0.486,0.537,0.54,0.523,0.384
NCI-H3122,0.406,0.399,0.373,0.334,0.452,0.208,0.216,0.164,0.186,1.02,0.971,0.974,1.01,0.939,0.946,0.973,0.968
LOU-NH91,0.767,0.655,0.653,0.431,0.616,0.557,0.543,0.527,0.541,0.651,0.637,0.622,0.355,0.859,0.884,0.958,0.536
NCI-H647,0.294,0.384,0.285,0.354,0.297,0.433,0.347,0.356,0.409,1.06,1.27,1.07,0.758,1.15,1.19,1.12,1.19
